The source of these data is patent publication US20080063723A1, “ISOTHIAZOLIN-3-ONE-CONTAINING ANTIMICROBIAL COMPOSITION” (priority 2006, published 2008).

Holding throughout (format): cell-based
The test system of one test is Aspergillus sp. The test is described as follows: Mold growth on treated Southern Yellow Pine wood samples, Aspergillus. The procedure: (§1) To determine the effectiveness of compositions containing an alkyl amine in combination with OIT and/or BBIT, such compositions were compared to compositions containing only an alkyl amine or compositions containing only OIT or BBIT. The efficacy of those compositions was shown by applying the compositions to Southern Yellow Pine (SYP) wood samples.
(§2) After the SYP samples were treated with the particular composition to be evaluated, the samples were placed onto a support in an extra depth Petri-dish.
(§3) A fungal spore suspension of two common mold species (Aspergillus and Fusarium) was spread on top of the wood sample. Fungal hyphal growth on the surface of samples was examined under the microscope once every week. The scale based on mycelial coverage of wood surface is as follows:
(§4) To evaluate the effectiveness of the compositions against common species of mold, compositions containing various levels of BBIT, OIT and C12-alkyl amine or a mixture of these components were tested on SYP wood blocks using the testing protocol discussed above. Specifically, compositions shown in Table 2A were applied to the wood blocks to determine anti-fungal efficacy of the compositions.
(§5) It is noted that compositions containing OIT and C12-alkyl amine were obtained by mixing compositions A0 and B0 in the recited ratio. Likewise, compositions containing BBIT and C12-alkyl amine were obtained by mixing compositions A0and C0.

A further test concerns Fusarium sp. The test is described as follows: Mold growth on treated Southern Yellow Pine wood samples, Fusarium. The procedure: as §1, §2, §3, §4, §5
Test [1] concerns two common mold species (Aspergillus and Fusarium). The test is described as follows: Mold control on treated wood, overall statements for both molds. As for the experimental part:
as §1, §2, §3, §4
It is noted that compositions containing OIT and C12-alkyl amine were obtained by mixing compositions A0 and B0 in the recited ratio. […]

Turning to `CCCCn1sc2ccccc2c1=O` [BBIT alone, N-n-butyl-1,2-benzisothiazolin-3-one], the “Aspergillus sp mycelial coverage” value in the test with Aspergillus sp (ratio 1:0, 80 ppm, 1 week) is recorded as 0 (0%); in the test with Aspergillus sp (ratio 1:0, 80 ppm, 2 weeks) it was 0 (0%); in the test with Aspergillus sp (ratio 1:0, 80 ppm, 3 weeks), 0 (0%); in the test with Aspergillus sp (ratio 1:0, 80 ppm, 4 weeks), 1 (<10%). The “Fusarium sp mycelial coverage” value in the test with Fusarium sp (ratio 1:0, 80 ppm, 1 week) was 0 (0%); in the test on Fusarium sp (ratio 1:0, 80 ppm, 2 weeks), 0 (0%); with Fusarium sp (ratio 1:0, 80 ppm, 3 weeks), 1 (<10%); in the test on Fusarium sp (ratio 1:0, 80 ppm, 4 weeks), 1 (<10%). Further, the “performance as a moldicide” value in test [1] (concentration of 80 ppm) is “performed effectively as a moldicide”.

For `CCCCCCCCCCCCN(C)C` [C12-alkyl amine alone], the “Aspergillus sp mycelial coverage” value with Aspergillus sp (Table 4, 1000 ppm, 1 week) is 0 (0%); with Aspergillus sp (Table 4, 1000 ppm, 2 weeks), 2 (˜10-30%); in the test on Aspergillus sp (Table 4, 1000 ppm, 3 weeks) it was 3 (˜30-60%); in the test on Aspergillus sp (Table 4, 1000 ppm, 4 weeks) it was 3 (˜30-60%); in the test with Aspergillus sp (ratio 0:1, 1000 ppm, 1 week) it was 0 (0%); with Aspergillus sp (ratio 0:1, 1000 ppm, 2 weeks), 2 (˜10-30%). Further, the “Aspergillus sp mycelial coverage” value in the test with Aspergillus sp (ratio 0:1, 1000 ppm, 3 weeks) is recorded as 3 (˜30-60%); with Aspergillus sp (ratio 0:1, 1000 ppm, 4 weeks), 3 (˜30-60%). In addition, the “performance as a moldicide” value is recorded as “less effective” in the test with Aspergillus sp (used alone, 1000 ppm, against Aspergillus) and “performed effectively as a moldicide” with Fusarium sp (used alone, 1000 ppm, against Fusarium). Also, the “Fusarium sp mycelial coverage” value is given as 0, 0, 0, 0 (0%) in the test on Fusarium sp (Table 4, 1000 ppm, 1 week); 0, 0, 0, 0 (0%) in the test on Fusarium sp (Table 4, 1000 ppm, 2 weeks); 0, 0, 0, 0 (0%) in the test with Fusarium sp (Table 4, 1000 ppm, 3 weeks); 0, 0, 0, 0 (0%) in the test with Fusarium sp (Table 4, 1000 ppm, 4 weeks); 0, 0, 0, 0 (0%) in the test on Fusarium sp (ratio 0:1, 1000 ppm, 1 week); 0, 0, 0, 0 (0%) in the test on Fusarium sp (ratio 0:1, 1000 ppm, 2 weeks). Further, the “Fusarium sp mycelial coverage” value in the test with Fusarium sp (ratio 0:1, 1000 ppm, 3 weeks) is given as 0, 0, 0, 0 (0%); with Fusarium sp (ratio 0:1, 1000 ppm, 4 weeks) it was 0, 0, 0, 0 (0%).

`CCCCCCCCn1sccc1=O` [OIT alone, 2-n-octyl-4-isothiazolin-3-one]: the “Aspergillus sp mycelial coverage” value is 0 (0%) in the test with Aspergillus sp (ratio 1:0, 100 ppm, 1 week); 0 (0%) with Aspergillus sp (ratio 1:0, 100 ppm, 2 weeks); 1 (<10%) in the test with Aspergillus sp (ratio 1:0, 100 ppm, 3 weeks); 1 (<10%) in the test with Aspergillus sp (ratio 1:0, 100 ppm, 4 weeks). In addition, the “Fusarium sp mycelial coverage” value with Fusarium sp (ratio 1:0, 100 ppm, 1 week) was 0, 0, 0, 0 (0%); in the test on Fusarium sp (ratio 1:0, 100 ppm, 2 weeks), 0, 0, 0, 0 (0%); in the test with Fusarium sp (ratio 1:0, 100 ppm, 3 weeks), 0, 0, 0, 0 (0%); with Fusarium sp (ratio 1:0, 100 ppm, 4 weeks), 0, 0, 0, 0 (0%). In test [1] (concentration of 100 ppm), the “performance as a moldicide” value is reported as “performed effectively as a moldicide”.
